Experimental data taken from patent US9783536B2, “Nitrogen-containing heterocyclic compound or salt thereof” (FUJIFILM Corporation, priority 2013, dated 2017).
Like-named read-outs stand apart in the source and are kept apart here.

Tests used:
human PI3Kα protein = target: T1, human PI3Kα protein (Homo sapiens, UniProt P42336); experiment: PI3Kα enzyme assay (ADP-Glo); assay type: biochemical; details: read-out: PI3Kα enzyme inhibitory activity
T1 construct: purchased Carna Biosciences, Inc; host or cells: baculovirus expression system
T1 sequence (P42336 whole entry): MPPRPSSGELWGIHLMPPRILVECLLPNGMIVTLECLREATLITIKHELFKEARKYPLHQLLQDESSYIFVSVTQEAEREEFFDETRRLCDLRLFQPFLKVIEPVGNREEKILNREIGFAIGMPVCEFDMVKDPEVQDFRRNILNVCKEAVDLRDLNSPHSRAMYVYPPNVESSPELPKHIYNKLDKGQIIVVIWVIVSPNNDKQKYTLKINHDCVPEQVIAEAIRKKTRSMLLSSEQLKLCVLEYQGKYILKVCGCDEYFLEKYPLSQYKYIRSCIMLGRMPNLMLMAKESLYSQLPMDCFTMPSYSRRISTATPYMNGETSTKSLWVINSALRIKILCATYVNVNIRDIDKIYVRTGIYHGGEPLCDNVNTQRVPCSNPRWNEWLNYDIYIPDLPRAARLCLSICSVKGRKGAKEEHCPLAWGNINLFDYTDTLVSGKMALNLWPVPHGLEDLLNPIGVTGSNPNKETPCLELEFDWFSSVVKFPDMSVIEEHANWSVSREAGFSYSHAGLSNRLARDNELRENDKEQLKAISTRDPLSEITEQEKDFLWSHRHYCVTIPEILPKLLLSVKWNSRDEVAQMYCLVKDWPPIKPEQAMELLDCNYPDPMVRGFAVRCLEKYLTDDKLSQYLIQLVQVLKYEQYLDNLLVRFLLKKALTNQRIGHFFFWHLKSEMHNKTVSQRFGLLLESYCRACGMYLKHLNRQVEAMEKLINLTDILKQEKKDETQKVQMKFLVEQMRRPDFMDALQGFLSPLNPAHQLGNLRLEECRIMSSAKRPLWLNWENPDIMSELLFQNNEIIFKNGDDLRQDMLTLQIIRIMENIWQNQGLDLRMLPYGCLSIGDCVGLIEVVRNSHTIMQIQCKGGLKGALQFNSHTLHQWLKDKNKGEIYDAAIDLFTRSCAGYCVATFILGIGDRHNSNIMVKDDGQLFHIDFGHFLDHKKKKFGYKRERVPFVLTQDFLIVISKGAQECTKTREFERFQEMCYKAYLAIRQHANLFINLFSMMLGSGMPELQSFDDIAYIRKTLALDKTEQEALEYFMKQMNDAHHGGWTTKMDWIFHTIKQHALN
T1 sequence (P27986 whole entry partner): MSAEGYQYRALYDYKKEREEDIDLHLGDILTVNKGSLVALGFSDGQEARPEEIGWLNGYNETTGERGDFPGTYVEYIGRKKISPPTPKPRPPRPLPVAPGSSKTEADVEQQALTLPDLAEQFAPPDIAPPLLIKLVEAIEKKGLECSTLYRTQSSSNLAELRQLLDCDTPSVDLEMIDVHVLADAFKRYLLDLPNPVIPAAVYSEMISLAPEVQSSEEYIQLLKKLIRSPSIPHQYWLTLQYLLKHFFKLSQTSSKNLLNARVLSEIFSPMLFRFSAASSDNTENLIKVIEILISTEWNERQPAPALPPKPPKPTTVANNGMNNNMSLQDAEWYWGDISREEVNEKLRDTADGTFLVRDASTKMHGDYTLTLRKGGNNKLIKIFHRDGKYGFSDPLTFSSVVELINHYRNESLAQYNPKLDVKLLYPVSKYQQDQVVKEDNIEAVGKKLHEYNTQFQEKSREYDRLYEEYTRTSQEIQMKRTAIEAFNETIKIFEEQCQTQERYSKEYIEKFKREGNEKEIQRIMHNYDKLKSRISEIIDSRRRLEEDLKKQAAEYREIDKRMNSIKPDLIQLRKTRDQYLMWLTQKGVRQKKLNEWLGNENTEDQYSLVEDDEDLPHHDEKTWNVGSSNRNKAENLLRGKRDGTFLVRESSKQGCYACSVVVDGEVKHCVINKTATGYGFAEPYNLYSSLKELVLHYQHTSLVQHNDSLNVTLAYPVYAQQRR
Summary of the method: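 Biotinylated human PI3Kα (baculovirus-expressed, 4.5 nmol/L) pre-incubated 15 min with compound in Tris-HCl pH 7.5, MgCl2, BSA; reaction 60 min at 25° C with 50 μmol/L PIP2 and 100 μmol/L ATP final. ADP quantified by ADP-Glo luminescence; IC50 calculated.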

[1] = target: T2, GST fusion human ERK2 protein (Homo sapiens, UniProt P28482); experiment: ERK2 enzyme assay (2); assay type: biochemical; details: read-out: ERK2 enzyme inhibitory activity (2)
T2 construct: purchased Carna Biosciences, Inc; host or cells: E. coli expression system
T2 sequence (P28482 whole entry, the tested form may be a part): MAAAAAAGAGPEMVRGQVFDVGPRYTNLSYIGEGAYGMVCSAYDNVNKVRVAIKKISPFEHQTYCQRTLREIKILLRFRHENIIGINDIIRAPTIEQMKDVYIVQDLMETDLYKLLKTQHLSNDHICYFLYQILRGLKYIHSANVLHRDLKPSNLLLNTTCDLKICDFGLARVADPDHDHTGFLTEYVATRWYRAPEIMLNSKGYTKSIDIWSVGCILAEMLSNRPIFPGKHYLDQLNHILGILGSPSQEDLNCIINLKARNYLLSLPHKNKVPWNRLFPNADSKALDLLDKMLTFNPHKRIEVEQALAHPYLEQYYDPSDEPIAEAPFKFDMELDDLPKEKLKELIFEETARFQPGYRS
Summary of the method: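 IC50 values come from mobility-shift measurement of phosphorylated versus unphosphorylated 5-FAM peptide substrate after EDTA quench. Beforehand, compound and 1.25 nmol/L E. coli-expressed GST–human ERK2 stood 15 min at room temperature (pH 7.5), then 1 mmol/L ATP and 4.25 μmol/L substrate (final) were added for 120 min at 25 °C.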

Row | SMILES | IC50 (human PI3Kα protein) [µM] | IC50 ([1]; ERK2 enzyme assay (2)) [µM] | IC50 [1] [µM]
1 | CC(=O)Nc1ccc(-c2nn(C)cc2-c2cnc3ccc(Nc4cc(C(C)C)cnn4)nc3c2)cn1 [Example 0459] | < 1 | < 1 | –
2 | c1cnnc(Nc2ccc3ncc(-c4cnn(CCCN5CCOCC5)c4)cc3n2)c1 [Example 0601, 7-(1-(3-Morpholinopropyl)-1H-pyrazol-4-yl)-N-(pyridazin-3-yl)-1,5-naphthyridine-2-amine] | 1 to 10 | < 1 | –
3 | Cn1cc(-c2cnc3ccc(Nc4cc(C5(C)CC5)cnn4)nc3c2)cn1 [Example 0633] | < 1 | < 1 | –
4 | CC(C)c1cnnc(Nc2ccc3ncc(-c4cnn(Cc5cccc([N+](=O)[O-])c5)c4)cc3n2)c1 [Example 0711] | < 1 | < 1 | –
5 | CC(C)c1cnnc(Nc2ccc3ncc(-c4cnn(CC5CN(C)CCO5)c4)cc3n2)c1 (stereo not shown) [Example 0728, N-(5-isopropylpyridazin-3-yl)-7-(1-((4-methylmorpholin-2-yl)methyl)-1H-pyrazol-4-yl)-1,5-naphthyridine-2-amine] | < 1 | < 1 | –
6 | CC(C)c1cnnc(Nc2ccc3ncc(N4CCOC[C@@H]4C)cc3n2)c1 [Example 0764] | < 1 | < 1 | –
7 | CC(C)CC(=O)N1CCC(Cn2cc(-c3cnc4ccc(Nc5cc(C(C)C)cnn5)nc4c3)cn2)CC1 [Example 0535] | < 1 | < 1 | –
8 | CC(C)c1cnnc(Nc2ccc3ncc(-c4cn(C)nc4N4CCC4)cc3n2)c1 [Example 0932] | < 1 | – | < 1
9 | CC(C)c1cnnc(Nc2ccc3ncc(NC4CNC4)cc3n2)c1 [Example 0905, N^7-(azetidin-3-yl)-N^2-(5-isopropylpyridazin-3-yl)-1,5-naphthyridine-2,7-diamine] | 1 to 10 | – | 1 to 10
10 | CC(C)c1cnnc(Nc2ccc3ncccc3n2)c1 [Example 0876] | 1 to 10 | 1 to 10 | –
11 | CCC(CC)c1cnnc(Nc2ccc3ncc(-c4cn(C)nc4-c4ccncc4)cc3n2)c1 [Example 0770] | < 1 | < 1 | –
12 | CC(C)c1cnnc(Nc2ccc3ncc(-c4cnn(C[C@@H]5CCC(=O)N5)c4)cc3n2)c1 [Example 0556] | < 1 | < 1 | –
13 | CC(C)c1cnnc(Nc2ccc3ncc(-c4cn(C)nc4NCc4cccnc4)cc3n2)c1 [Example 0833] | < 1 | < 1 | –
14 | CC(C)c1cnnc(Nc2ccc3ncc(-c4cnn(Cc5ccccc5N)c4)cc3n2)c1 [Example 0705, 7-(1-(2-aminobenzyl)-1H-pyrazol-4-yl)-N-(5-isopropylpyridazin-3-yl)-1,5-naphthyridine-2-amine] | < 1 | < 1 | –
15 | Cc1cccc(Cn2cc(-c3cnc4ccc(Nc5cc(C(C)C)cnn5)nc4c3)cn2)n1 [Example 0411, N-(5-isopropylpyridazin-3-yl)-7-(1-((6-methylpyridin-2-yl)methyl)-1H-pyrazol-4-yl)-1,5-naphthyridine-2-amine] | < 1 | < 1 | –
16 | CC(C)c1cnnc(Nc2ccc3ncc(-c4cn(C)nc4-c4ccnc(OCCN(C)C)c4)cc3n2)c1 [Example 0751] | < 1 | < 1 | –
17 | CC(C)c1cnnc(Nc2ccc3ncc(-c4cnn(/C=C(\F)CN5CCCC5)c4)cc3n2)c1 [Example 0726, (Z)-7-(1-(2-fluoro-3-(pyrrolidin-1-yl)-1-propen-1-yl)-1H-pyrazol-4-yl)-N-(5-isopropylpyridazin-3-yl)-1,5-naphthyridine-2-amine] | < 1 | < 1 | –
18 | CC(C)c1cnnc(Nc2ccc3ncc(N4CCN(CC(F)(F)F)CC4)cc3n2)c1 [Example 0875] | 1 to 10 | < 1 | –
19 | CC(C)c1cnnc(Nc2ccc3ncc(N4CCC(C(N)=O)C4)cc3n2)c1 (stereo not shown) [Example 0898] | < 1 | 1 to 10 | –
20 | Cn1cc(-c2cnc3ccc(Nc4cc(C5CCOCC5)cnn4)nc3c2)cn1 [Example 0759] | < 1 | < 1 | –
21 | Cc1nc2ccc(Nc3cc(C(C)C)cnn3)nc2cc1-c1cnn(C)c1 [Example 0849, N-(5-isopropylpyridazin-3-yl)-6-methyl-7-(1-methyl-1H-pyrazol-4-yl)-1,5-naphthyridine-2-amine] | 1 to 10 | < 1 | –
22 | CC(C)c1cnnc(Nc2ccc3ncc(-c4cnn(CCOC5CN(CC(F)F)C5)c4)cc3n2)c1 [Example 0747, 7-(1-(2-((1-(2,2-difluoroethyl)azetidin-3-yl)oxy)ethyl)-1H-pyrazol-4-yl)-N-(5-isopropylpyridazin-3-yl)-1,5-naphthyridine-2-amine] | < 1 | < 1 | –

Row | SMILES | IC50 (human PI3Kα protein) [µM] | IC50 ([1]; ERK2 enzyme assay (2)) [µM] | IC50 [1] [µM]
23 | CC(C)c1cnnc(Nc2ccc3ncc(C(=O)O)cc3n2)c1 [Example 0639, 6-((5-isopropylpyridazin-3-yl)amino)-1,5-naphthyridine-3-carboxylic acid] | 1 to 10 | 10 to 50 | –
24 | CC(C)c1cnnc(Nc2ccc3ncc(-c4cccnc4O)cc3n2)c1 [Example 0593] | 1 to 10 | < 1 | –
25 | CC(C)c1cnnc(Nc2ccc3ncc(-c4cnn(Cc5cncnc5)c4)cc3n2)c1 [Example 0722] | < 1 | < 1 | –
26 | CC(C)c1cnnc(Nc2ccc3ncc(-c4cn(C)nc4/C=C/c4cccnc4)cc3n2)c1 [Example 0807] | < 1 | < 1 | –
27 | CC(C)c1cnnc(Nc2ccc3ncc(N4CCN(S(C)(=O)=O)CC4)cc3n2)c1 [Example 0861] | < 1 | < 1 | –
28 | CO[C@H]1CC[C@H](Cn2cc(-c3cnc4ccc(Nc5cc(C(C)C)cnn5)nc4c3)cn2)CC1 [Example 0522, N-(5-isopropylpyridazin-3-yl)-7-(1-(((1r,4r)-4-methoxycyclohexyl)methyl)-1H-pyrazol-4-yl)-1,5-naphthyridine-2-amine] | < 1 | < 1 | –
29 | COCc1cnnc(Nc2ccc3ncc(-c4cnn(C)c4)cc3n2)c1 [Example 0922] | 1 to 10 | – | < 1
30 | CC(C)c1cnnc(Nc2ccc3ncc(-c4cnc(OC5CCN(C)CC5)s4)cc3n2)c1 [Example 0507] | < 1 | < 1 | –
31 | CC(=O)N1CCN(c2cnc3ccc(Nc4cc(C(C)C)cnn4)nc3c2)CC1 [Example 0872] | < 1 | < 1 | –
32 | CC(=O)NCCc1cn(-c2cnc3ccc(Nc4cc(C(C)C)cnn4)nc3c2)cn1 [Example 0504, N-(2-(1-(6-((5-isopropylpyridazin-3-yl)amino)-1,5-naphthyridin-3-yl)-1H-imidazol-4-yl)ethyl)acetamide] | < 1 | < 1 | –
33 | c1cncc(Cn2cc(-c3cnc4ccc(Nc5cc(C6CC6)cnn5)nc4c3)cn2)c1 [Example 0463, N-(5-cyclopropylpyridazin-3-yl)-7-(1-(pyridin-3-ylmethyl)-1H-pyrazol-4-yl)-1,5-naphthyridine-2-amine] | < 1 | < 1 | –
34 | CC1CN(CCCn2cc(-c3cnc4ccc(Nc5cc(C(C)C)cnn5)nc4c3)cn2)CCO1 (stereo not shown) [Example 0608] | < 1 | < 1 | –
35 | Cc1nn(C)c(C)c1-c1cnc2ccc(Nc3cc(C(C)C)cnn3)nc2c1 [Example 0624, N-(5-isopropylpyridazin-3-yl)-7-(1,3,5-trimethyl-1H-pyrazol-4-yl)-1,5-naphthyridine-2-amine] | 1 to 10 | < 1 | –
36 | CCN(CC)C(=O)N1CCC(Cn2cc(-c3cnc4ccc(Nc5cc(C(C)C)cnn5)nc4c3)cn2)CC1 [Example 0531] | < 1 | < 1 | –
37 | CC(=O)N1CCC(Cn2cc(-c3cnc4ccc(Nc5cc(C(C)C)cnn5)nc4c3)cn2)CC1 [Example 0528, 1-(4-((4-(6-((5-Isopropylpyridazin-3-yl)amino)-1,5-naphthyridin-3-yl)-1H-pyrazol-1-yl)methyl)piperidin-1-yl)ethanone] | < 1 | < 1 | –
38 | CC(C)c1cnnc(Nc2ccc3ncc(-c4cn(C)nc4NC4CCCCC4)cc3n2)c1 [Example 0830, 7-(3-(cyclohexylamino)-1-methyl-1H-pyrazol-4-yl)-N-(5-isopropylpyridazin-3-yl)-1,5-naphthyridine-2-amine] | < 1 | < 1 | –
39 | COCCOC(CN1CCOCC1)Cn1cc(-c2cnc3ccc(Nc4cc(C(C)C)cnn4)nc3c2)cn1 (stereo not shown) [Example 0744] | < 1 | < 1 | –
40 | Cc1nc2ccc(Nc3cc(C(C)C)cnn3)nc2cc1-c1cn(C)nc1C [Example 0851, 7-(1,3-Dimethyl-1H-pyrazol-4-yl)-N-(5-isopropylpyridazin-3-yl)-6-methyl-1,5-naphthyridine-2-amine] | 1 to 10 | < 1 | –
41 | CC(C)c1cnnc(Nc2ccc3ncc(N(C)C)cc3n2)c1 [Example 0627, N^2-(5-isopropylpyridazin-3-yl)-N^7,N^7-dimethyl-1,5-naphthyridine-2,7-diamine] | 1 to 10 | < 1 | –
42 | CC(C)c1cnnc(Nc2ccc3ncc(-c4cnn(CC5CCN(C(=O)N6CCCC6)CC5)c4)cc3n2)c1 [Example 0539] | < 1 | < 1 | –
43 | CC(C)c1cnnc(Nc2ccc3ncc(N4CCC(S(N)(=O)=O)C4)cc3n2)c1 (stereo not shown) [Example 0900] | < 1 | 1 to 10 | –
44 | CC(C)c1cnnc(Nc2ccc3ncc(C4=CCN(S(C)(=O)=O)C4)cc3n2)c1 [Example 0908, N-(5-Isopropylpyridazin-3-yl)-7-(1-(methylsulfonyl)-2,5-dihydro-1H-pyrrol-3-yl)-1,5-naphthyridine-2-amine] | < 1 | – | < 1
